The values below come from patent US20100267712A1, “ISOINDOLINE COMPOUNDS FOR THE TREATMENT OF SPINAL MUSCULAR ATROPHY AND OTHER USES” (The United States of America, as represented by the …, priority 2007, published 2010).

Test [1] concerns translational stop codon read-through, human SMN2 open reading frame-luciferase. Kind of test: Translational read-through luciferase reporter assay (luciferase preceded by the open reading frame of the human SMN2 gene). It counts as cell-based. An excerpt:
This assay was similar in design to that described in WO 01/44516 A2. This was a cell-based luciferase reporter assay designed to detect translational read-through via insertion of a translational stop codon within the coding sequence that includes luciferase. In the presence of compounds that promote read-through of translational stop codons, active luciferase was produced and detected via chemiluminescence. Compounds of the invention typically were active in three versions of this assay: luciferase reporter containing a UGA stop codon, luciferase reporter containing a UAG stop codon, which is the first stop codon downstream of the improper splice junction between exons 6 and 8 in the human SMN2 transcript, and luciferase preceded by the open reading frame of the human SMN2 gene.

For test [2], the system named is SMN-containing gems in type 1 SMA patient fibroblasts (3813 cells). As to the kind of experiment: SMN-containing gem count in SMA patient fibroblasts. It counts as cell-based, human. To be noted: 48 hours, 3813 fibroblasts. An excerpt:
SMN protein can be found in punctate nuclear particles called “gems” (Liu and Dreyfuss, EMBO J, 15 (14): 3555-3565 (1996)). In fibroblast cells derived from SMA patients, the number of gems corresponds to disease severity as follows: severe type 1 patients have approximately 5 gems per 100 nuclei; mild type 3 patients have 20-50 gems per 100 nuclei; normal individuals have approximately 100-150 gems per 100 nuclei (Coovert et al., Hum Mol Genet, 6 (8): 1205-1214 (1997), Young et al., Exp Cell Res, 265 (2): 252-261 (2001)).
Gems are detectable by immunohistochemistry and gem counts in patient fibroblasts have been used to test the ability of compounds to increase SMN protein levels (Mattis et al., Hum Genet, 120: 589-601 (2006)). Following these methods, fibroblast cells from a type 1 SMA patient (3813 cells, Coriell Cell Repositories) were treated for 48 hours with a compound of the invention. The cells were then fixed and incubated with a monoclonal antibody against SMN (4B7, Wolstencroft et al., Hum Mol Genet, 14: 1199-1210 (2005)). A FITC-conjugated anti-mouse secondary antibody was used to visualize the labeled gems. A positive control in these experiments was provided by fibroblasts from the same patient treated with 1000 μM valproic acid.

For test [3], the system named is SMN protein. Kind of test: Western blot of total cellular SMN protein in SMA type I fibroblasts. It counts as cell-based, human. To be noted: 48 hours, 3813 cells. How it is done:
Western blots were performed using standard methods. SMA type I fibroblasts (3813 cells; Coriell Cell Repositories) were treated with compounds for 48 hours. Monoclonal SMN anti-SMN antibody 4B7 (Wolstencroft et al., Hum Mil Genet, 14:1199-1210 (2005)) was used to identify SMN protein. Tubulin was used as an internal normalization standard. DMSO treatment serves as the negative control.

Test [4] concerns SMN2-linked luciferase-reporter gene construct. Kind of test: SMN Splice Reporter Assay (SMN2-linked luciferase reporter). It counts as cell-based. To be noted: for EC50: cervical carcinoma cell lines, SMN2 splice luciferase reporter; for Fold Increase: fold-increase of luciferase over baseline reading of transformed cells without any test compound. Put shortly: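 Cervical carcinoma cells carrying an SMN2-luciferase splicing reporter, in-frame only with exon 7 inclusion, were treated with compound. Luciferase activity reported as fold increase over untreated transformed cells, with EC50 derived.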

The test system of a further test is SMA model mouse fetuses. To be noted: administered in utero; cited from earlier work.
Test [5] has as its system SMN protein. To be noted: cited from earlier work.

For `COc1ccc2c(c1)C(=O)N(c1ccc3occc3c1)C2` [Example 119047], in test [1], a half-maximal response (EC50) required 4.28 µM and the maximal fold induction is 2.04. In test [2] (0.1 μM compound), the “Average number of gems per 100 nuclei” value came out at 32. In addition, in the test with SMN protein [3] (0.1 μM), the “SMN:Tubulin ratio as % of Vehicle Control” value (“SMN:Tubulin ratio as %” for short) turned out to be 125.19%. In test [4], it took 0.059 µM to reach a half-maximal effect (EC50) and the “Fold Increase” value is on record as 1.456.

On to `CCCc1ccc2c(c1)C(=O)N(c1ccc3c(ccn3C)c1)C2` [Example 119522], for which, in test [1], a half-maximal response (EC50) required 1.84 µM and the maximal fold induction came out at 1.73. The “Average number of gems per 100 nuclei” value in test [2] (1 μM compound) turned out to be 6. In test [4], the EC50 came to 0.068 µM and the “Fold Increase” value is recorded as 1.557.

As for `Cn1ccc2cc(N3Cc4ccc(OC(F)F)cc4C3=O)ccc21` [Example 119537], in test [1], the EC50 came out at 1.35 µM and the maximal fold induction was determined as 2.12. Also, the “Average number of gems per 100 nuclei” value in test [2] (0.1 μM compound) came out at 31. In addition, in test [4], a half-maximal response (EC50) required 0.112 µM and the “Fold Increase” value was 1.604.

As for `COc1ccc2c(c1)C(=O)N(c1ccc3ncsc3c1)C2` [Example 120596], in test [1], a half-maximal response (EC50) required 1.72 µM and the maximal fold induction came to 2.23. Further, the “Average number of gems per 100 nuclei” value in test [2] (0.1 μM compound) came out at 148. The “SMN:Tubulin ratio as %” value with SMN protein [3] (1 μM) amounted to 124.41%. In addition, in test [4], the EC50 worked out at 0.126 µM and the “Fold Increase” value is reported as 1.591.

Turning to `COc1ccc2c(c1)C(=O)N(c1ccc3cn[nH]c3c1)C2` [Example 120602], in test [1], the EC50 is 1.11 µM and the maximal fold induction is 2.12. Also, the “Average number of gems per 100 nuclei” value in test [2] (0.1 μM compound) is listed as 68. For the same molecule, the “SMN:Tubulin ratio as %” value in the test on SMN protein [3] (1 μM) amounted to 123.67%. In test [4], the 50% effective concentration (EC50) is 0.154 µM and the “Fold Increase” value is reported as 1.412.

Regarding `CCOc1ccc2c(c1)C(=O)N(c1ccc3c(ccn3C)c1)C2` [Example 121789], in test [1], the response was half-maximal at 0.35 µM (EC50) and the maximal fold induction amounted to 1.79. Further, in test [2] (1 μM compound), the “Average number of gems per 100 nuclei” value was found to be 10. For the same molecule, in test [4], the EC50 is 0.069 µM and the “Fold Increase” value stood at 1.461.

`Cc1cc2cc(N3Cc4ccc(Cl)cc4C3=O)ccc2n1C` [Example 123011]: in test [1], the EC50 amounted to 2.64 µM and the maximal fold induction was 1.89. In addition, in test [2] (1 μM compound), the “Average number of gems per 100 nuclei” value was 37. In addition, in test [4], the EC50 was found to be 0.088 µM and the “Fold Increase” value amounted to 1.481.

For `Cc1cc2cc(N3Cc4ccc(N(C)C)cc4C3=O)ccc2n1C` [Example 123707], in test [1], it took 0.091 µM to reach a half-maximal effect (EC50) and the maximal fold induction was 1.44. The “Average number of gems per 100 nuclei” value in test [2] (0.1 μM compound) was 53. In test [4], the EC50 was determined as 0.099 µM and the “Fold Increase” value stood at 1.635.

As for `COc1ccc2c(c1)C(=O)N(c1ccc3c(c1)cc(C)n3C(C)C)C2` [Example 123714], in test [1], the EC50 came to 1.91 µM and the maximal fold induction came out at 1.18. The “Average number of gems per 100 nuclei” value in test [2] (1 μM compound) worked out at 84. Also, in test [4], the EC50 came out at 2.63 µM and the “Fold Increase” value was 1.863.

Take `CN(C)c1ccc2c(c1)C(=O)N(c1ccc3ncccc3c1)C2` [Example 124032]: the maximal fold induction in test [1] amounted to 1.02. In addition, the “Average number of gems per 100 nuclei” value in test [2] (1 μM compound) amounted to 65. Also, in test [4], the EC50 was 0.009 µM and the “Fold Increase” value is 1.659.

For the molecule `CC(C)Oc1ccc2c(c1)C(=O)N(c1ccc3ccn(C)c3c1)C2` [Example 124326], in test [1], a half-maximal effect (EC50) was put at 0.129 µM and the maximal fold induction came out at 0.946. Besides, the “Average number of gems per 100 nuclei” value in test [2] (1 μM compound) is 98. Further, the “SMN:Tubulin ratio as %” value in the test on SMN protein [3] (3 μM) was found to be 147.687%. For the same molecule, in test [4], the response was half-maximal at 0.17 µM (EC50) and the “Fold Increase” value was determined as 1.666.

For the molecule `Cn1ccc2ccc(N3Cc4ccc(N5CCCC5)cc4C3=O)cc21` [Example 124596], the “Average number of gems per 100 nuclei” value in test [2] (1 μM compound) is recorded as 43. Besides, in test [4], a half-maximal response (EC50) required 0.047 µM and the “Fold Increase” value is 1.681.

For the molecule `COc1ccc2c(c1)C(=O)N(c1ccc3cc(C)n(C)c3c1)C2` [Example 124597], in test [2] (1 μM compound), the “Average number of gems per 100 nuclei” value is on record as 42. Also, in test [4], the EC50 was 0.347 µM and the “Fold Increase” value was found to be 1.358.

Take `CN(C)c1ccc2c(c1)C(=O)N(c1ccc3ccn(C)c3c1)C2` [Example 124771]: in test [1], the EC50 stood at 4.21 µM and the maximal fold induction amounted to 1.8. For the same molecule, the “Average number of gems per 100 nuclei” value in test [2] (1 μM compound) amounted to 50. Besides, in test [4], a half-maximal effect (EC50) was put at 0.043 µM and the “Fold Increase” value came out at 1.689.

For the molecule `CC(C(=O)O)c1ccc(N2Cc3ccccc3C2=O)cc1` (stereo not shown) [Indoprofen, indoprofen], in the test with SMA model mouse fetuses, the “survival of SMA model mouse fetuses” value was “increase survival”. For the same molecule, the luciferase activity result in test [4] (result in words) is recorded as “increases luciferase activity”. The “production of SMN from the endogenous SMN2 gene” value with SMN protein [5] (SMA patient fibroblasts) is listed as “increase in production of SMN”. The “level of expression of SMN protein” value in the test on SMN protein [5] (cultured cells, Lunn et al. 2004) was “increases the level of expression of SMN protein”.
